This experiment concerns B6C3F1 mice, B16 melanoma ip, median survival T/C. The experiment is described as follows: NCI In Vivo Anticancer Drug Screen. Data for tumor model B16 Melanoma (intraperitoneal) in B6C3F1 mice. To be noted: endpoint: median survival time, higher = longer survival. The method, boiled down: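 Values are T/C ratios: the measurement in treated animals divided by that in vehicle-treated controls, using survival or tumor size in mice carrying transplantable tumors.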

Where [1] appears, read: dose: 0.25 mg/kg/injection, schedule: Q01DX009 (ip), vehicle: water.
Setting [2] is: dose: 1.0 mg/kg/injection, schedule: Q01DX009 (ip), vehicle: water.
Where [3] appears, read: dose: 2.0 mg/kg/injection, schedule: Q01DX009 (ip), vehicle: water.
[4] abbreviates: dose: 25.0 mg/kg/injection, schedule: Q01DX009 (ip), vehicle: suspension in saline.
Where [5] appears, read: dose: 50.0 mg/kg/injection, schedule: Q01DX009 (ip), vehicle: suspension in saline.
The mark [6] stands for this setting: dose: 100.0 mg/kg/injection, schedule: Q01DX009 (ip), vehicle: saline.
[7] abbreviates: dose: 12.5 mg/kg/injection, schedule: Q01DX009 (ip), vehicle: saline.
[8] abbreviates: dose: 25.0 mg/kg/injection, schedule: Q01DX009 (ip), vehicle: saline with Tween-80.
Where [9] appears, read: dose: 25.0 mg/kg/injection, schedule: Q01DX009 (ip), vehicle: saline.
The mark [10] stands for this setting: dose: 50.0 mg/kg/injection, schedule: Q01DX009 (ip), vehicle: saline with Tween-80.
[11] abbreviates: dose: 50.0 mg/kg/injection, schedule: Q01DX009 (ip), vehicle: saline.
The mark [12] stands for this setting: dose: 6.25 mg/kg/injection, schedule: Q01DX009 (ip), vehicle: Klucel (hydroxypropylcellulose) (HPC).
Setting [13] is: dose: 100.0 mg/kg/injection, schedule: Q01DX009 (ip), vehicle: saline with Tween-80.
The mark [14] stands for this setting: dose: 200.0 mg/kg/injection, schedule: Q01DX009 (ip), vehicle: saline with Tween-80.
Where [15] appears, read: dose: 400.0 mg/kg/injection, schedule: Q01DX009 (ip), vehicle: saline with Tween-80.

Several values for one entry are separate records, joined by “and”; a condition that tells them apart may be missing. Equal entries are not always repeated. Toxic doses and inconclusive results are not listed.

Regarding `N[C@@H](Cc1ccc(N(CCCl)CCCl)cc1)C(=O)O`, the T/C is, setting by setting: (dose: 0.25 mg/kg/injection, schedule: Q01DX009 (ip), vehicle: saline) 111 % of control and 124 % of control; under setting [1], 124 % of control; under setting [2], 183 % of control; (dose: 2.0 mg/kg/injection, schedule: Q01DX009 (ip), vehicle: saline with Tween-80) 176 % of control; under setting [3], 194 % of control; (dose: 2.0 mg/kg/injection, schedule: Q04DX003 (ip), vehicle: saline) 164 % of control. The T/C (dose: 2.5 mg/kg/injection, schedule: Q04DX003 (ip), vehicle: saline) is 182 % of control; the T/C (dose: 4.0 mg/kg/injection, schedule: Q01DX009 (ip), vehicle: saline with Tween-80) is 387 % of control; the T/C (dose: 4.0 mg/kg/injection, schedule: Q04DX003 (ip), vehicle: saline) is 204 % of control; the T/C (dose: 5.0 mg/kg/injection, schedule: Q04DX003 (ip), vehicle: saline) is 217 % of control; the T/C (dose: 7.31 mg/kg/injection, schedule: Q01DX001 (ip), vehicle: other) is 172 % of control; the T/C (dose: 7.5 mg/kg/injection, schedule: Q04DX003 (ip), vehicle: saline) is 230 % of control and 240 % of control. The T/C runs as follows: (dose: 9.75 mg/kg/injection, schedule: Q01DX001 (ip), vehicle: other) 157 % of control; (dose: 10.0 mg/kg/injection, schedule: Q04DX003 (ip), vehicle: saline) 79 % of control; (dose: 13.0 mg/kg/injection, schedule: Q01DX001 (ip), vehicle: other) 173 % of control.

For `C1CNCCN1`, the T/C under setting [4] is 103 % of control; the T/C under setting [5] is 111 % of control; the T/C (dose: 100.0 mg/kg/injection, schedule: Q01DX009 (ip), vehicle: suspension in saline) is 109 % of control; the T/C (dose: 200.0 mg/kg/injection, schedule: Q01DX009 (ip), vehicle: suspension in saline) is 111 % of control.

For `CC(C)(C#CC(C)(C)OC(=O)Nc1ccccc1)OC(=O)Nc1ccccc1`, the T/C is, setting by setting: under setting [6], 106 % of control; (dose: 200.0 mg/kg/injection, schedule: Q01DX009 (ip), vehicle: saline) 100 % of control; (dose: 400.0 mg/kg/injection, schedule: Q01DX009 (ip), vehicle: saline) 98 % of control.

Take `O=c1n(CC2CO2)c(=O)n(CC2CO2)c(=O)n1CC1CO1` (centres undefined): the T/C runs as follows: (dose: 3.12 mg/kg/injection, schedule: Q01DX009 (ip), vehicle: saline) 121 % of control; (dose: 5.0 mg/kg/injection, schedule: Q01DX009 (ip), vehicle: saline) 155 % of control; (dose: 6.25 mg/kg/injection, schedule: Q01DX009 (ip), vehicle: saline with Tween-80) 171 % of control; (dose: 6.25 mg/kg/injection, schedule: Q01DX009 (ip), vehicle: suspension in saline) 178 % of control and 152 % of control; (dose: 10.0 mg/kg/injection, schedule: Q01DX009 (ip), vehicle: saline) 186 % of control; (dose: 12.5 mg/kg/injection, schedule: Q01DX009 (ip), vehicle: saline with Tween-80) 212 % of control and 153 % of control. The T/C under setting [7] is 188 % of control; the T/C (dose: 12.5 mg/kg/injection, schedule: Q01DX009 (ip), vehicle: suspension in saline) is 211 % of control and 172 % of control; the T/C (dose: 20.0 mg/kg/injection, schedule: Q01DX009 (ip), vehicle: saline) is 228 % of control; the T/C under setting [8] was 263 % of control and 197 % of control; the T/C under setting [9] was 205 % of control and 227 % of control and 170 % of control; the T/C under setting [4] is 282 % of control and 235 % of control. The T/C runs as follows: (dose: 40.0 mg/kg/injection, schedule: Q01DX009 (ip), vehicle: saline) 261 % of control; under setting [10], 233 % of control; under setting [11], 234 % of control and 172 % of control; under setting [5], 255 % of control; under setting [6], 191 % of control.

Turning to `CC1=C2C(=CO[C@H](C)[C@H]2C)C(=O)C(C(=O)O)=C1O`, the T/C reads like this: under setting [12], 105 % of control; (dose: 6.25 mg/kg/injection, schedule: Q01DX009 (ip), vehicle: saline) 108 % of control; (dose: 12.5 mg/kg/injection, schedule: Q01DX009 (ip), vehicle: Klucel (hydroxypropylcellulose) (HPC)) 102 % of control; under setting [7], 100 % of control; under setting [9], 100 % of control; under setting [11], 98 % of control.

Turning to `CN(C=O)C(C(=O)Nc1cccc2c(OC(=O)C(N(C)C=O)(N(C)C=O)N(C)C=O)c(N=Nc3ccc(S(=O)(=O)Nc4nccs4)cc3)cc(N=Nc3ccc(S(=O)(=O)Nc4nccs4)cc3)c12)(N(C)C=O)N(C)C=O` (tested in a mixture with another compound), the T/C runs as follows: under setting [8], 98 % of control; under setting [10], 112 % of control; under setting [13], 121 % of control; under setting [14], 104 % of control; under setting [15], 105 % of control.

Regarding `Nc1nc(-c2ccc(Cl)c([N+](=O)[O-])c2)c(Br)c(=O)[nH]1`, the T/C was 121 % of control (dose: 18.25 mg/kg/injection, schedule: Q01DX009 (ip), vehicle: saline with Tween-80); 118 % of control (dose: 36.5 mg/kg/injection, schedule: Q01DX009 (ip), vehicle: saline with Tween-80); 100 % of control (dose: 73.0 mg/kg/injection, schedule: Q01DX009 (ip), vehicle: saline with Tween-80); 100 % of control (dose: 146.0 mg/kg/injection, schedule: Q01DX009 (ip), vehicle: saline with Tween-80).

Regarding `Cc1noc(N)c1N`, the T/C was 94 % of control (dose: 12.0 mg/kg/injection, schedule: Q01DX009 (ip), vehicle: water); 100 % of control (dose: 25.0 mg/kg/injection, schedule: Q01DX009 (ip), vehicle: water); 106 % of control (dose: 50.0 mg/kg/injection, schedule: Q01DX009 (ip), vehicle: water); 100 % of control (dose: 100.0 mg/kg/injection, schedule: Q01DX009 (ip), vehicle: water); 96 % of control (dose: 200.0 mg/kg/injection, schedule: Q01DX009 (ip), vehicle: water); 90 % of control (dose: 400.0 mg/kg/injection, schedule: Q01DX009 (ip), vehicle: water).

As to `N=C(N)c1nn(C2OC(CO)C(O)C2O)c2nc[nH]c(=O)c12` (centres undefined), the T/C (dose: 2.25 mg/kg/injection, schedule: Q01DX009 (ip), vehicle: Klucel (hydroxypropylcellulose) (HPC)) was 92 % of control and 102 % of control; the T/C (dose: 3.12 mg/kg/injection, schedule: Q01DX009 (ip), vehicle: Klucel + Tween-80) is 99 % of control; the T/C (dose: 3.75 mg/kg/injection, schedule: Q01DX009 (ip), vehicle: Klucel (hydroxypropylcellulose) (HPC)) was 112 % of control and 101 % of control; the T/C under setting [12] was 112 % of control and 90 % of control; the T/C (dose: 10.42 mg/kg/injection, schedule: Q01DX009 (ip), vehicle: Klucel (hydroxypropylcellulose) (HPC)) is 92 % of control; the T/C (dose: 17.36 mg/kg/injection, schedule: Q01DX009 (ip), vehicle: Klucel (hydroxypropylcellulose) (HPC)) is 110 % of control and 98 % of control.

For `C=COC(=O)C(Cc1ccccc1)NC(=O)OCc1ccccc1` (centres undefined), the T/C runs as follows: under setting [8], 102 % of control; under setting [10], 98 % of control; under setting [13], 96 % of control; under setting [14], 102 % of control; under setting [15], 90 % of control.

For `CCC1=C[C@H]2CN(CCc3c([nH]c4ccccc34)[C@@](OC(C)=O)(c3cc4c(cc3OC)N(C)[C@H]3[C@@](O)(C(=O)NCCSc5ccccc5)[C@H](O)[C@]5(CC)C=CCN6CC[C@]43[C@@H]65)C2)C1`, the T/C under setting [1] is 107 % of control, the T/C under setting [2] was 118 % of control and the T/C under setting [3] was 124 % of control.

These data come from PubChem BioAssay AID200 (DTP/NCI, 2004).
